In brackets after ≈: the same amount, converted by molar mass.
System: C. difficile ATCC BAA 1801
Assay: MIC, broth microdilution, initial screening
Format: cell-based, Clostridioides difficile
Conditions: for MIC: C. difficile ATCC BAA 1801, anaerobic, 48 hours
[1] = Clostridioides difficile, BAA1801, 48 h

Row | SMILES | MIC [1] [µg/mL] | MIC [µg/mL] | activity against C. difficile ATCC BAA 1801 in words
1 | O=C(Nc1nnc(-c2cccc(F)c2)o1)c1ccc(SC(F)(F)F)cc1 [compound 4, N-(5-(3-Fluorophenyl)-1,3,4-oxadiazol-2-yl)-4-((trifluoromethyl)thio)benzamide] | 0.03 (≈ 0.0783 µM) | – | –
2 | COc1cccc(-c2nnc(NC(=O)c3ccc(SC(F)(F)F)cc3)o2)c1 [compound 6, N-(5-(3-Methoxyphenyl)-1,3,4-oxadiazol-2-yl)-4-((trifluoromethyl)thio)benzamide] | 4 (≈ 10.1 µM) | – | only moderate to no actvity
3 | O=C(Nc1nnc(-c2cccc(C(F)(F)F)c2)o1)c1ccc(SC(F)(F)F)cc1 [compound 7, N-(5-(3-Trifluoromethylphenyl)-1,3,4-oxadiazol-2-yl)-4-((trifluoromethyl)thio)benzamide] | 0.015 (≈ 0.0346 µM) | – | –
4 | O=C(Nc1nnc(-c2ccc(C(F)(F)F)cc2)o1)c1ccc(SC(F)(F)F)cc1 [compound 10, N-(5-(4-Trifluoromethylphenyl)-1,3,4-oxadiazol-2-yl)-4-((trifluoromethyl)thio)benzamide] | 0.125 (≈ 0.288 µM) | – | –
5 | O=C(Nc1nnc(-c2ccc(Cl)cc2Cl)o1)c1ccc(SC(F)(F)F)cc1 [compound 14, N-(5-(2,4-Dichlorophenyl)-1,3,4-oxadiazol-2-yl)-4-((trifluoromethyl)thio)benzamide] | 0.06 (≈ 0.138 µM) | 0.03 (≈ 0.0691 µM) | –
6 | COc1ccc(Cl)cc1-c1nnc(NC(=O)c2ccc(SC(F)(F)F)cc2)o1 [compound 16, N-(5-(5-Chloro-2-methoxyphenyl)-1,3,4-oxadiazol-2-yl)-4-((trifluoromethyl)thio)benzamide] | 2 (≈ 4.65 µM) | – | –
7 | O=C(Nc1nnc(-c2ccccn2)o1)c1ccc(SC(F)(F)F)cc1 [compound 17, N-(5-(Pyridin-2-yl)-1,3,4-oxadiazol-2-yl)-4-((trifluoromethyl)thio)benzamide] | 8 (≈ 21.8 µM) | – | only moderate activity

More lines, main results first:

Row | MIC [1] [µg/mL] | MIC [µg/mL] | SMILES | activity against C. difficile ATCC BAA 1801 in words
8 | 0.03 (≈ 0.075 µM) | – | O=C(Nc1nnc(-c2cccc(Cl)c2)o1)c1ccc(SC(F)(F)F)cc1 [compound 5, N-(5-(3-Chlorophenyl)-1,3,4-oxadiazol-2-yl)-4-((trifluoromethyl)thio)benzamide] | –
9 | 4 (≈ 10.4 µM) | – | O=C(Nc1nnc(-c2ccc(F)cc2)o1)c1ccc(SC(F)(F)F)cc1 [compound 8, N-(5-(4-Fluorophenyl)-1,3,4-oxadiazol-2-yl)-4-((trifluoromethyl)thio)benzamide] | –
10 | 2 (≈ 5 µM) | – | O=C(Nc1nnc(-c2ccc(Cl)cc2)o1)c1ccc(SC(F)(F)F)cc1 [compound 9, N-(5-(4-Chlorophenyl)-1,3,4-oxadiazol-2-yl)-4-((trifluoromethyl)thio)benzamide] | –
11 | 4 (≈ 10.1 µM) | – | COc1ccc(-c2nnc(NC(=O)c3ccc(SC(F)(F)F)cc3)o2)cc1 [compound 11, N-(5-(4-Methoxyphenyl)-1,3,4-oxadiazol-2-yl)-4-((trifluoromethyl)thio)benzamide] | only moderate to no actvity
12 | 128 (≈ 314 µM) | – | CC(C)c1ccc(-c2nnc(NC(=O)c3ccc(SC(F)(F)F)cc3)o2)cc1 [compound 13, N-(5-(4-Isopropylphenyl)-1,3,4-oxadiazol-2-yl)-4-((trifluoromethyl)thio)benzamide] | only moderate to no actvity

— PMC9064041 (Journal of medicinal chemistry, 2020)
